# According to PMC4701221, “Novel Promising Estrogenic Receptor Modulators: Cytotoxic and Estrogenic Activity of Benzanilides and Dithiobenzanilides” (PLoS ONE, 2016):
# Columns and labels:
# [1] = MTT assay, CCD39Lu; format: cell-based; conditions: human, CCD39Lu cells (non-tumorigenic lung fibroblasts), read-out: Cytotoxic activity IC50, CCD39Lu
# Description: (§1) The cell lines used in the cytotoxicity study, besides MCF-12A, were purchased from European Collection of Cell Culture (ECACC, Salisbury, UK): HEK293 (human embryonic kidney, ATTC no. CRL-1573), A549 (Human lung carcinoma, ECACC no. 86012804), CCD39Lu (Human lung fibroblasts, ECACC no. 90110512), MCF-7 (Human breast adenocarcinoma, ECACC no. 86012803) and MDA-MB-231 (Human breast adenocarcinoma ECACC no. 92020424). Cell lines were cultured in DMEM medium without phenol red and supplemented with 10% (v/v) FBS, 1% penicillin-streptomycin and 1% L-glutamine. MCF-12A (ATTC no. […]) was purchased from American Type Culture Collection (ATCC Manassas, VA 20110 USA). MCF-12A cells were kept in 1:1 mixture of Dulbecco’s modified Eagle’s medium and Ham’s F12 medium, 20 ng/ml human epidermal growth factor, 100 ng/ml cholera toxin, 0.01 mg/ml bovine insulin, 500 ng/ml hydrocortisone and 5% horse serum. All cell lines were cultured at 37°C, in a humidified atmosphere containing 5% CO2.
# (§2) Compounds were dissolved in DMSO to the final concentration of […]. A549, CCD39Lu, MCF-7, MDA-MB-231 and MCF-12A cells were seeded in 96 wells plates at density 2x10^4 cells/well and incubated overnight as described above. Subsequently, cells were treated with tested compounds at concentrations: 100 μM; 50 μM; 25μM; 12.5μM; 6 μM; 3 μM; 1.5 μM. […] Cells were incubated 72 h at 37°C in a humidified atmosphere containing 5% CO2 in the cell culture media appropriate for each cell line. Then, the medium was aspirated and 170 μl MTT solution (5mg/ml) was added to each well. Plates were incubated for 2 hours at 37°C, and then plates were centrifuged at 1200 rpm for 3 minutes. The formazan crystals were dissolved in 200 μl DMSO and plates were further agitated on a plate shaker at 300–500 rpm for 10 minutes. Absorbance at 570 nm (with reference wavelenght 650 nm) was measured using a plate reader (Biotek Instruments, Elx-800). Cell viability was calculated as a percentage relative to the control.
# [2] = test system: MCF-7 cells; assay: Sulphorodamine B assay, MCF-7; format: cell-based, human; conditions: 72 h, Fig 2
# Description: In addition to the MTT assay, cell viability was measured by the Sulphorodamine B assay according to Vichai and Kirtikara. The MCF-7 and MDA-MB-23 cells were seeded and treated as for the MTT assay. After incubation the medium was removed and the cells were fixed with cold (4°C) trichloroacetic acid (final concentration 10%) for 1h. Than plates were washed 4 times with water and stained for 30 min, following by staining with sulforhodamine B (SRB) 0.4% in 1% acetic acid solution at room temperature for 20 min. After staining, the SRB solution was removed and the plates washed 5 times with 1% acetic acid dried. Bound SRB was solubilized with 200 μl 10 mM unbuffered Tris-base solution and plates were shaked for 10 min. The absorbance at 510 nm was measured using a plate reader (Biotek Instruments, Elx-800).
# [3] = target: T1, ERα W383A (Homo sapiens, UniProt P03372, W383A); assay: Estrogen Receptor luciferase assay in HEK293 cells transfected with ERα W383A; format: cell-based; conditions: HEK293, Fig 6A
# T1 construct: expressed in transfected cells; host or cells: HEK293
# T1 sequence (P03372 1-595 W383A): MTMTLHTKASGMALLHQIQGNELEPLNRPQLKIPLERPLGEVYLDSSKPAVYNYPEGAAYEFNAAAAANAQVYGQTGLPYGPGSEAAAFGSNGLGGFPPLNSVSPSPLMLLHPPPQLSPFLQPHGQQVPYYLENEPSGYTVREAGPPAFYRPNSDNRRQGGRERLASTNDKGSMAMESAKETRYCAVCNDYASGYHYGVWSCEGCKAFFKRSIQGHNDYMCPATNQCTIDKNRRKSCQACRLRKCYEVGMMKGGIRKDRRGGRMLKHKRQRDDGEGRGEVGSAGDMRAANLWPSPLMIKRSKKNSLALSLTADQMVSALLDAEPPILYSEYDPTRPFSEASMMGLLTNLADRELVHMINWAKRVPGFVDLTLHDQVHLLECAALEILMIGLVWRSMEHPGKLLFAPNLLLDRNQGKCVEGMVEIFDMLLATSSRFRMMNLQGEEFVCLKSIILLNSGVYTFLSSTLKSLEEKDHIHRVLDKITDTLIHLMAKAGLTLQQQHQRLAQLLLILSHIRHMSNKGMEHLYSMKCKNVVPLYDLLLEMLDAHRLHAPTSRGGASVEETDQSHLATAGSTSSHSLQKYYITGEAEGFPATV
# Source text: To obtain a eukaryotic vector expressing only the ER-α nuclear receptor, a construct was designed by cloning a KpnI-BamHI fragment from plasmid pEGFP-C1-ERα containing the ERα coding sequence that includes a stop signal into the pEGFP-N3 plasmid (Clontech Laboratories, Palo Alto, CA) under the control of the CMV promoter. […] For mock transfections, pEGFP-N3 plasmid was digested with BglII and NotI and religated after polishing DNA ends to remove GFP coding sequence. Plasmid sequence was confirmed by automatic sequencing. Prior to transfection, cells were seeded in 48 well plates at density of 1.5 x 10^4 cells/well and incubated for 24 h to reach a cell confluence of 80–90%. […] MCF-7 cells, which endogenously express ERα receptor, were transfected with p3xERRE/ERE-luciferase plus the pRLTK Renilla luciferase control plasmid (95:5). Firefly and Renilla luciferase activities were measured using the Dual Luciferase Assay System (Promega, Madison, WI, USA), following a standard protocol using a Sirius L luminometer (Berthold Technologies, Bad Wildbad, Germany). Data were expressed as relative changes in luciferase activity and normalized to 100%.
# Plasmids for the expression of the ERα W383A and ER-α W383S mutated receptors were constructed by the quick change site directed mutagenesis method using plasmid pEGFP-N-ERα as template.
# [4] = test system: MDA-MB-231 cells; assay: MTT assay, MDA-MB-231; format: cell-based, human
# Description: as §1, §2
# [5] = test system: MDA-MB-231 cells; assay: LDH release assay, MDA-MB-231; format: cell-based, human; conditions: 72 h, Fig 2
# Description: Cytotoxicity was evaluated by measuring the cell membrane permeability, using a LDH assay kit purchased from Cayman Chemical (Ann Arbor USA). The LDH assay was performed for MCF-7 and MDA-MB-231 cells (seeded at 2×10^4 density). As a positive control cell permeabilization with 1%Triton X-100 was used. The assay was performed 72h after start the incubation. Briefly, the plates were centrifuged at 400 ×g for 5 minutes, and 100 μL of supernatant were transferred from each well to the new 96-well plate and analyzed according to the manufacturer’s protocol. 100 μL of reaction mixture, containing lactic acid, NAD^+, tetrazolium salt and diaphorase, was added to each well. Plates were incubated on an orbital shaker for 30 minutes at room temperature and the absorbance at 490 nm was measured with a plate reader (Biotek Instruments, Elx-800). Results were expressed as a percentage of the total value of the positive control.
compound,measurement,setting,value
Fc1ccc(NC(=S)c2ccc(NC(=S)c3ccc(F)cc3)cc2)cc1 [Compound 18],IC50 at 72 h,[1],> 100 µM
same,"Effect in SRB assay, MCF-7",[2],strong effect
same,"Activation of ER dependent transcription, ERα W383A vs wild type",[3],less active
same,"Toxicity/effect in MTT assay (in words), MDA-MB-231",[4]; 72 h,non-significant effects
same,IC50,"[4]; Homo sapiens, MDA-MB-231, 72 h, estrogen independent breast adenocarcinoma, read-out: Cytotoxic activity IC50, MDA-MB-231",> 100 µM
same,"LDH release, MDA-MB-231",[5],non-significant effects
